Columns and labels:
Type in all cases: physicochemical
[1] = Kinetic solubility in water and bio-relevant media (SGF, FaSSIF, FeSSIF) at 37° C.; conditions: for FC: Form change: residual solids by XRPD
Procedure: Add 4 mL of medium (H2O, SGF, FaSSIF and FeSSIF). • Rolled at 37° C. (˜25 rpm). Sampling at 1, 2, 4 and 24 hrs. • At each time-point, sampled 0.8 mL of solution or suspension into a centrifuge tube prior to centrifugation (12000 rpm, 37° C., 5 min) and filtration through 0.45 μm PTFE membrane. • Tested pH and concentration for the filtrate. Analyze residual solids by XRPD.
0.1 g of NaCl and 0.05 g of Triton X-100 were weighed into a 50-mL volumetric flask. Purified water was added to dissolve the solid. 67.5 μL HCl (38%, 12M) was added after the solid was dissolved completely. pH was then adjusted to 1.8 using HCl (1 M) or NaOH (1 M). Purified water was added to the volume.
(§1) 0.17 g of anhydrous NaH2PO4, 0.021 g of NaOH and 0.31 g of NaCl were weighed into a 50-mL volumetric flask. ˜48 mL purified water was added to dissolve the solid. pH was adjusted to 6.5 using 1M HCl or 1M NaOH. Purified water was then added to the volume. 0.11 g of SIF powder was added into the volumetric flask.
as §1, with “0.41 mL” for “0.17 g”, “acetic acid, 0.20” for “anhydrous NaH2PO4, 0.021”, “0.59” for “0.31”, “5.0” for “6.5”, “0.56” for “0.11”

[2] = Hygroscopicity by DVS at 25° C.
Procedure: DVS was measured via a SMS (Surface Measurement Systems) DVS Intrinsic. The relative humidity at 25° C. were calibrated against deliquescence point of LiCl, Mg(NO3)2 and KCl.

[3] = Solid state stability at 25° C./60% RH and 40° C./75% RH for 1 week; conditions: for HPLC peak Area, RRT 1.00: main peak
Procedure: Each sample was added into a glass vial, sealed by parafilm with several holes, and kept under tested conditions. After one week, samples were taken for XRPD and HPLC purity test.

## N#Cc1ccc(COc2cccc(C3CCN(Cc4nc5ccc(C(=O)O)cc5n4Cc4cncs4)CC3)n2)c(F)c1 [Fumarate Type A]
[1]; FaSSIF, 37° C., 1 hr
  FC: Form change: No
[1]; FaSSIF, 37° C., 2 hrs
  FC: Form change: No
[1]; FaSSIF, 37° C., 4 hrs
  FC: Form change: No
[1]; FaSSIF, 37° C., 24 hrs
  FC: Form change: No
[1]; FeSSIF, 37° C., 1 hr
  FC: Form change: No
[1]; FeSSIF, 37° C., 2 hrs
  FC: Form change: No
[1]; FeSSIF, 37° C., 4 hrs
  FC: Form change: No
[1]; FeSSIF, 37° C., 24 hrs
  FC: Form change: No
[1]; H2O, 37° C., 1 hr
  FC: Form change: No
[1]; H2O, 37° C., 2 hrs
  FC: Form change: No
[1]; H2O, 37° C., 4 hrs
  FC: Form change: No
[1]; H2O, 37° C., 24 hrs
  FC: Form change: No
[1]; SGF, 37° C., 1 hr
  FC: Form change: No
[1]; SGF, 37° C., 2 hrs
  FC: Form change: No
[1]; SGF, 37° C., 4 hrs
  FC: Form change: No
[1]; SGF, 37° C., 24 hrs
  FC: Form change: No
[1]; all the media (H2O, SGF, FaSSIF, FeSSIF), after 24 hrs
  form change of residual solids (XRPD) after solubility test: No form change
[1]; all the media, 37° C.
  solubility compared with the other selected salts: lowest solubility
[2]; 25° C./80% RH
  water uptake (DVS): 0.12%
[2]; DVS, 25° C.
  hygroscopicity: non-hygroscopic
[2]; DVS, 25° C./80% RH
  Water uptake at 25° C./80% RH: 0.12 wt %
[2]; XRPD after DVS test
  For change after DVS: No
[2]; after DVS test
  form change after DVS test (XRPD): no form change
[3]; 25° C./60% RH, 1 week
  HPLC peak Area, RRT 0.73: 0.14%
  HPLC peak Area, RRT 0.80: 0.05%
  HPLC peak Area, RRT 0.83: 1.98%
  HPLC peak Area, RRT 0.90: 0.10%
  HPLC peak Area, RRT 0.99: 0.06%
  HPLC peak Area, RRT 1.05: 0.28%
  HPLC peak Area, RRT 1.10: 0.89%
  HPLC peak Area, RRT 1.12: 0.06%
  HPLC peak Area, RRT 1.15: 0.25%
  HPLC peak Area, RRT 1.34: 0.07%
  HPLC peak Area, RRT 1.00: 96.13%
[3]; 25° C./60% RH/Open/1 week
  Form change: No
  Purity: 96.13 Area %
[3]; 25° C./60% RH/open and 40° C./75% RH/open, 1 week
  solid-state stability: form change and purity decrease: no form change or significant purity decrease
[3]; 40° C./75% RH, 1 week
  HPLC peak Area, RRT 0.73: 0.13%
  HPLC peak Area, RRT 0.80: <0.05%
  HPLC peak Area, RRT 0.83: 1.89%
  HPLC peak Area, RRT 0.90: 0.09%
  HPLC peak Area, RRT 0.99: <0.05%
  HPLC peak Area, RRT 1.05: 0.29%
  HPLC peak Area, RRT 1.10: 0.87%
  HPLC peak Area, RRT 1.12: 0.05%
  HPLC peak Area, RRT 1.15: 0.26%
  HPLC peak Area, RRT 1.34: 0.06%
  HPLC peak Area, RRT 1.00: 96.37%
[3]; 40° C./75% RH/Open/1 week
  Form change: No
  Purity: 96.37 Area %
[3]; Initial
  HPLC peak Area, RRT 0.73: 0.13%
  HPLC peak Area, RRT 0.80: <0.05%
  HPLC peak Area, RRT 0.83: 1.91%
  HPLC peak Area, RRT 0.90: 0.09%
  HPLC peak Area, RRT 0.99: <0.05%
  HPLC peak Area, RRT 1.05: 0.27%
  HPLC peak Area, RRT 1.10: 0.87%
  HPLC peak Area, RRT 1.12: 0.05%
  HPLC peak Area, RRT 1.15: 0.24%
  HPLC peak Area, RRT 1.34: 0.06%
  Purity: 96.37 Area %
  HPLC peak Area, RRT 1.00: 96.37%
